Consider 13 molecules from ChEMBL document CHEMBL1909046, “DrugMatrix in vitro pharmacology data”.

One may read the IC50 as the concentration at which inhibition is half-maximal. What is called Ki is a measure of affinity in units of concentration, obtained from inhibition or displacement. A low value points to a stronger hold on the target.

Data set [1] is described as follows: DRUGMATRIX: Sodium/nucleoside co-transporter radioligand binding (ligand: nitrobenzylthioinosine). The following applies: Not Active = under 50% inhibition at 10 µM. The class given is cell membranes, Cavia porcellus, Dunkin-Hartley, Cerebral cortex, Membrane.
Data set [2] in a line: DRUGMATRIX: Sigma2 radioligand binding (ligand: [3H] Ifenprodil). The class given is cell membranes, Rattus norvegicus, Wistar, Brain, Membrane. The following applies: Not Active = under 50% inhibition at 10 µM.
Data set [3] addresses Insulin receptor (Rattus norvegicus, UniProt P15127). The class given is cell membranes, Wistar, Liver, Membrane.
Data set [4] addresses Mu-type opioid receptor (Homo sapiens, UniProt P35372). The data set can be described thus: DRUGMATRIX: Opiate mu (OP3, MOP) radioligand binding (ligand: [3H] Diprenorphine). Particulars: Not Active = under 50% inhibition at 10 µM. The data set is classed as cell membranes, CHO-K1, Membrane.
For data set [5], the target named is T1, Angiotensin-converting enzyme (Oryctolagus cuniculus, UniProt P12822).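 Further: enzymatic inhibition of angiotensin-converting enzyme measured with FAPGG as the substrate; in other assays of this panel Not Active means under 50% inhibition at 10 µM.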
T1 sequence (P12822 whole entry): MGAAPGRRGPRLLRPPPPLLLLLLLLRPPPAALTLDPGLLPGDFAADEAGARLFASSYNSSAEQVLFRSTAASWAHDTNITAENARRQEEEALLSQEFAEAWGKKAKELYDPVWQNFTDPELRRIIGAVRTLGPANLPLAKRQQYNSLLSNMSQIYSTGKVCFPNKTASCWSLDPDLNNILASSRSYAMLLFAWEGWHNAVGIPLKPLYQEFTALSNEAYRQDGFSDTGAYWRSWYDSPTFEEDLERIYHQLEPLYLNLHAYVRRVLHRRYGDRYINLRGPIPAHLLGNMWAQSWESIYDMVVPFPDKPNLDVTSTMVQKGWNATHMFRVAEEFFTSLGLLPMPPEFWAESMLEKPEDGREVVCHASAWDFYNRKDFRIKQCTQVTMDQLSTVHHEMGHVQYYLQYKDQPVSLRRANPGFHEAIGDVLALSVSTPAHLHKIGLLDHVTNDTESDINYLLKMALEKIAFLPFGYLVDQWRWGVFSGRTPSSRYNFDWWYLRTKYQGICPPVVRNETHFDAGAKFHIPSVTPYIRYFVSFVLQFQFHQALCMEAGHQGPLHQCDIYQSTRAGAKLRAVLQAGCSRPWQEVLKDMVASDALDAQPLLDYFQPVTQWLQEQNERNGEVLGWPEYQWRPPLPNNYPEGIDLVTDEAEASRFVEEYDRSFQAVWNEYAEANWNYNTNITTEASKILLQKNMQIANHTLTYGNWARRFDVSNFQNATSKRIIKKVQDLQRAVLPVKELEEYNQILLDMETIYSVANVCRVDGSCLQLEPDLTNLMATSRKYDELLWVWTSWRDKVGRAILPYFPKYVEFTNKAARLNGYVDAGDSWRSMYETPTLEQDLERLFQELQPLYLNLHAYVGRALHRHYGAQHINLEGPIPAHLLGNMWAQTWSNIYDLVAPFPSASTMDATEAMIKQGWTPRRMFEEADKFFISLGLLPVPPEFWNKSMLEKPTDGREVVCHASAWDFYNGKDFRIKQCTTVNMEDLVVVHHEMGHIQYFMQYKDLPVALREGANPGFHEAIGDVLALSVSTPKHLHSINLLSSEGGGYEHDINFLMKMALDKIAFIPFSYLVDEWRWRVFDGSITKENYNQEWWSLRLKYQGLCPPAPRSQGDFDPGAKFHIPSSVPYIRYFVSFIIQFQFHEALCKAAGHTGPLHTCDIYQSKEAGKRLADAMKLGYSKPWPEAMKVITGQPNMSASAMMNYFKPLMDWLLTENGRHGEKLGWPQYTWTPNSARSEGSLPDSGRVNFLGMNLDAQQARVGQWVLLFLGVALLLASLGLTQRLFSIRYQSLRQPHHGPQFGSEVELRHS
The class given is tissue-based, Lung.

Data set [6] concerns the target Tyrosine-protein kinase Fyn (Homo sapiens, UniProt P06241). The data set can be described thus: biochemical. The class given is cell-based, Insect cells.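 Further: enzymatic inhibition of Fyn kinase activity measured with Poly(Glu:Tyr) as the phosphorylation substrate; in other assays of this panel Not Active means under 50% inhibition at 10 µM.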
In data set [7] the target is T2, Cytochrome P450 1A2 (Homo sapiens, UniProt P05177). Further: in other assays of this panel Not Active means under 50% inhibition at 10 µM.
T2 sequence (P05177 whole entry): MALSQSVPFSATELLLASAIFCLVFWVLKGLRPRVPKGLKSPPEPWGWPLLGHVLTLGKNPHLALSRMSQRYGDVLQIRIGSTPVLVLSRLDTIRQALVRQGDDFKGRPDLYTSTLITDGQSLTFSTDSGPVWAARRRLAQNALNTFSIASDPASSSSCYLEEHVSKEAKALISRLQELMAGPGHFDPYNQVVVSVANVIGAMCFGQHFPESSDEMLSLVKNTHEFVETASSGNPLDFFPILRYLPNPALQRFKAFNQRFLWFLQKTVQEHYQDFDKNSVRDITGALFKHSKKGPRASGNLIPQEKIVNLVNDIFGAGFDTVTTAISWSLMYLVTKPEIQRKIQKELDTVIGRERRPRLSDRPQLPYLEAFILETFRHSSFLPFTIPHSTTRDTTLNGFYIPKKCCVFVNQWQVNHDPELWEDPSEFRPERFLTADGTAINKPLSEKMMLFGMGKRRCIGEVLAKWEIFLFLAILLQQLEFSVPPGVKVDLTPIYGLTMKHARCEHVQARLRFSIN
The following applies: bti-tn-5b1-4.

Mu-type opioid receptor, sequence (P35372 whole entry): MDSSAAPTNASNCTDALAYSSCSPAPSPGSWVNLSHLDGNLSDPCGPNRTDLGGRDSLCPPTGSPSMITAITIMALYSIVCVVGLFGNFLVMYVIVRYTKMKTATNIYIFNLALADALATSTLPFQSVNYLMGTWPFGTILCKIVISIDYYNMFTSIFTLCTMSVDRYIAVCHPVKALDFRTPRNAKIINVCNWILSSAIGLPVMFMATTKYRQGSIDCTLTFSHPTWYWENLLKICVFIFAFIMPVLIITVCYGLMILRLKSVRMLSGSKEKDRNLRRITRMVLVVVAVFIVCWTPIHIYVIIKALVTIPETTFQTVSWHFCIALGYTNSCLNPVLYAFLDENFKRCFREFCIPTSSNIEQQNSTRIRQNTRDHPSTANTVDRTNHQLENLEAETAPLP
Insulin receptor, sequence (P15127 27-759 limits assumed): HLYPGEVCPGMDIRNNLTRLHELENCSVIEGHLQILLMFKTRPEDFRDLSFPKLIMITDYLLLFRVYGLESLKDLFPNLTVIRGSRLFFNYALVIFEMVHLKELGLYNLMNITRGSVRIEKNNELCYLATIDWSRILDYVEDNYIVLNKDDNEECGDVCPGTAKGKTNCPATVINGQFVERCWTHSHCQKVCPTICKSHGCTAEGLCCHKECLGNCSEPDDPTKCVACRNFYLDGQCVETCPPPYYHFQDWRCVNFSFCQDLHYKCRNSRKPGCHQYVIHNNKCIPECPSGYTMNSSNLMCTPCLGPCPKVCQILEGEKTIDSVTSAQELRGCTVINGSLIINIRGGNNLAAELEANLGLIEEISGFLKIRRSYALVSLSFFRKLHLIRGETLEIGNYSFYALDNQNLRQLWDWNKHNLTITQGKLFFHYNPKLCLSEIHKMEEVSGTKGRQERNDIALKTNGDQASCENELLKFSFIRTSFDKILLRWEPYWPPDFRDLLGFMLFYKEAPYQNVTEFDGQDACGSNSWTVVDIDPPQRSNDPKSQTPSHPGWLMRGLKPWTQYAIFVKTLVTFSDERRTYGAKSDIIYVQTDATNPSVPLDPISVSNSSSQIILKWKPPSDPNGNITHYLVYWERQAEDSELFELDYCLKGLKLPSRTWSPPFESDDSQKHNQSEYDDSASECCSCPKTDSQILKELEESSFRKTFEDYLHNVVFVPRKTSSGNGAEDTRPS
Insulin receptor, sequence (P15127 764-1383 limits assumed): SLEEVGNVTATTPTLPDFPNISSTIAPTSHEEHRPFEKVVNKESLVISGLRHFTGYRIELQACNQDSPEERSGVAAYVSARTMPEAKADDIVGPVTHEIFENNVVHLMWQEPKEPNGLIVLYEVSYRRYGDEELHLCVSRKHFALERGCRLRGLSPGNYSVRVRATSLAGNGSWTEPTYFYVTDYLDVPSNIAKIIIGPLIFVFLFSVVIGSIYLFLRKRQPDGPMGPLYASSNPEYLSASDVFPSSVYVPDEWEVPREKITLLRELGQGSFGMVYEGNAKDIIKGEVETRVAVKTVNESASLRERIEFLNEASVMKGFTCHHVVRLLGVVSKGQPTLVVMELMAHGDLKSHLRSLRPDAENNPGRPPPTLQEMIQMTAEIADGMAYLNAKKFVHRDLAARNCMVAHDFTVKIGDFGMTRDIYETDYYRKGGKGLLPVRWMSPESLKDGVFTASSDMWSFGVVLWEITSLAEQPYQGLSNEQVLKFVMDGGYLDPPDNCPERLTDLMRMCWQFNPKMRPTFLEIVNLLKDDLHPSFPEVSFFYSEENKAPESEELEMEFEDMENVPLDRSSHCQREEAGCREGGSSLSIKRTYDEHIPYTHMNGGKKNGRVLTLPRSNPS
Tyrosine-protein kinase Fyn, sequence (P06241 whole entry): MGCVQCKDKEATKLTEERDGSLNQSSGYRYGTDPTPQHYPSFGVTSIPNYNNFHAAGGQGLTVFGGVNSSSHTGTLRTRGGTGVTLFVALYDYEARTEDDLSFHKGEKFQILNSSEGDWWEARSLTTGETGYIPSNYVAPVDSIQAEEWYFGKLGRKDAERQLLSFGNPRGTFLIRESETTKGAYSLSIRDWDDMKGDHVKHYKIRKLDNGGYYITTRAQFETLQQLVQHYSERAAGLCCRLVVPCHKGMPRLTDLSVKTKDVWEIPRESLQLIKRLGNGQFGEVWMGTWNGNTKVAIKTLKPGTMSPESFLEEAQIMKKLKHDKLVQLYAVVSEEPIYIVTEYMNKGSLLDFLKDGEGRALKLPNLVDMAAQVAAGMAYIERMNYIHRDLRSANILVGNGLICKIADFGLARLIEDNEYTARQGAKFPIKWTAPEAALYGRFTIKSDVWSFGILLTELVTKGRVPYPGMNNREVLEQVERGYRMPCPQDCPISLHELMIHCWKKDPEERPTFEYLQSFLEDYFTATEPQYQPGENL

For `COc1ccccc1N`, the IC50 entry in data set [1], in data set [2], in data set [3], in data set [4] (cho-k1), in data set [5] and in data set [6] (insect cells) was “Not Active” in each case. In addition, the IC50 result in data set [7] is “Not Active”. Also, the Ki entry in data set [1], in data set [2] and in data set [7] was “Not Active” each time.
For `Cc1c(O)cccc1C(=O)N[C@@H](CSc1ccccc1)[C@H](O)CN1C[C@H]2CCCC[C@H]2C[C@H]1C(=O)NC(C)(C)C`, the IC50 result in data set [1] is “Not Active”; in data set [2], “Not Active”; in data set [3], “Not Active”; in data set [4] (read-out: IC50), 14.4 µM; in data set [5], “Not Active”; in data set [6] (read-out: IC50) it was 7.97 µM. Further, the IC50 entry in data set [7] is “Not Active”. Besides, the Ki result in data set [1] is “Not Active”; in data set [2] it was “Not Active”; in data set [4], 5.86 µM; in data set [7], “Not Active”.
In the case of `CC(O)COC[C@H]1O[C@@H]2O[C@H]3[C@H](O)[C@@H](O)[C@@H](O[C@H]4[C@H](O)[C@@H](O)[C@@H](O[C@H]5[C@H](O)[C@@H](O)[C@@H](O[C@H]6[C@H](O)[C@@H](O)[C@@H](O[C@H]7[C@H](O)[C@@H](O)[C@@H](O[C@H]8[C@H](O)[C@@H](O)[C@@H](O[C@H]1[C@H](O)[C@H]2O)O[C@@H]8COCC(C)O)O[C@@H]7COCC(C)O)O[C@@H]6COCC(C)O)O[C@@H]5COCC(C)O)O[C@@H]4COCC(C)O)O[C@@H]3COCC(C)O` (stereo partly drawn) [2-HYDROXYPROPYL-BETA-CYCLODEXTRIN], the IC50 result in data set [1] is “Not Active”; in data set [2], “Not Active”; in data set [3], “Not Active”; in data set [4] (cho-k1) it was “Not Active”; in data set [5] it was “Not Active”; in data set [6] (read-out: IC50) it was 3.04 µM. For the same molecule, the IC50 result in data set [7] was “Not Active”. Moreover, the Ki entry in data set [1], in data set [2] and in data set [7] was “Not Active” throughout.
In the case of `NC(=O)c1cccc(N)c1` [3-AMINOBENZAMIDE], the IC50 entry in data set [1], in data set [2], in data set [3], in data set [4] (cho-k1), in data set [5] and in data set [6] (insect cells) was “Not Active” in each case. Besides, the IC50 result in data set [7] is given as “Not Active”. For the same molecule, the Ki entry in data set [1], in data set [2] and in data set [7] was “Not Active” in each case.
In the case of `C[C@H]1O[C@H](O[C@H]2[C@H](O)[C@@H](O)[C@@H](O[C@H]3[C@H](O)[C@@H](O)C(O)O[C@@H]3CO)O[C@@H]2CO)[C@H](O)[C@@H](O)[C@@H]1N[C@H]1C=C(CO)[C@@H](O)[C@H](O)[C@H]1O` (stereo partly specified) [ACARBOSE], the IC50 result in data set [1], in data set [2], in data set [3], in data set [4] (cho-k1), in data set [5] and in data set [6] (insect cells) was “Not Active” throughout. Moreover, the IC50 result in data set [7] was “Not Active”. Moreover, the inhibitory constant (Ki) entry in data set [1], in data set [2] and in data set [7] was “Not Active” throughout.
As for `CC[C@H]1[C@@H]2C[C@H]3[C@@H]4N(C)c5ccccc5[C@]45C[C@@H]([C@@H]2[C@H]5O)N3[C@@H]1O` [AJMALINE], the IC50 entry in data set [1], in data set [2], in data set [3], in data set [4] (cho-k1), in data set [5] and in data set [6] (insect cells) was “Not Active” throughout. In addition, the IC50 result in data set [7] is “Not Active”. In addition, the Ki result in data set [1], in data set [2] and in data set [7] was “Not Active” throughout.
On to `NCCCNCCSP(=O)(O)O` [AMIFOSTINE], for which the IC50 result in data set [1], in data set [2], in data set [3], in data set [4] (cho-k1), in data set [5] and in data set [6] (insect cells) was “Not Active” in each case. Besides, in data set [7], the IC50 entry was “Not Active”. Besides, the Ki result in data set [1], in data set [2] and in data set [7] was “Not Active” throughout.
As for `CN(C)CCC=C1c2ccccc2CCc2ccccc21` [AMITRIPTYLINE], the IC50 result in data set [1], in data set [2], in data set [3], in data set [4] (cho-k1), in data set [5] and in data set [6] (insect cells) was “Not Active” each time. Further, the IC50 result in data set [7] is reported as “Not Active”. Moreover, the Ki entry in data set [1], in data set [2] and in data set [7] was “Not Active” each time.
As for `CC(=O)Oc1ccccc1C(=O)O` [ASPIRIN], the IC50 result in data set [1], in data set [2], in data set [3], in data set [4] (cho-k1), in data set [5] and in data set [6] (insect cells) was “Not Active” each time. Also, the IC50 entry in data set [7] is “Not Active”. Also, the inhibition constant (Ki) result in data set [1], in data set [2] and in data set [7] was “Not Active” in each case.
Turning to `CC(=O)OC[C@H]1O[C@@H](n2ncc(=O)[nH]c2=O)[C@H](OC(C)=O)[C@@H]1OC(C)=O` [AZARIBINE], the IC50 entry in data set [1], in data set [2], in data set [3], in data set [4] (cho-k1), in data set [5] and in data set [6] (insect cells) was “Not Active” throughout. For the same molecule, the IC50 entry in data set [7] is “Not Active”. Moreover, the Ki result in data set [1], in data set [2] and in data set [7] was “Not Active” each time.
As for `C[C@H]1[C@H](NC(=O)/C(=N\OC(C)(C)C(=O)O)c2csc(N)n2)C(=O)N1S(=O)(=O)O` [AZTREONAM], the IC50 entry in data set [1], in data set [2], in data set [3], in data set [4] (cho-k1), in data set [5] and in data set [6] (insect cells) was “Not Active” throughout. Moreover, the IC50 result in data set [7] is on record as “Not Active”. The Ki entry in data set [1], in data set [2] and in data set [7] was “Not Active” throughout.
In the case of `O=C(O)CCNC(=O)c1ccc(/N=N/c2ccc(O)c(C(=O)O)c2)cc1` [BALSALAZIDE], the IC50 entry in data set [1], in data set [2], in data set [3], in data set [4] (cho-k1), in data set [5] and in data set [6] (insect cells) was “Not Active” each time. Also, the 50% inhibitory concentration (IC50) result in data set [7] is “Not Active”. The Ki entry in data set [1], in data set [2] and in data set [7] was “Not Active” each time.
Take `COc1cc(OC)c(C(=O)CCCN2CCCC2)c(OC)c1` [BUFLOMEDIL]: the IC50 result in data set [1], in data set [2], in data set [3], in data set [4] (cho-k1), in data set [5] and in data set [6] (insect cells) was “Not Active” each time. The IC50 entry in data set [7] is given as “Not Active”. Also, the Ki entry in data set [1], in data set [2] and in data set [7] was “Not Active” in each case.
